According to patent US9610273B2, “Method for the treatment of hypercholesterolemia” (SAMI LABS LIMITED, priority 2014, dated 2017):
Marks after values point to notes of the source that are not given here.

How the values were obtained:
mice = assay: Acute Oral Toxicity of Calebin A; format: in vivo
Experimental: No mortality was observed up to 2000 mg/kg p.o. in mice up to two weeks of observation.

[1] = system: C57 mice on high fat diet (60 kcal % Fat); assay: Effect of Calebin A on serum clinical chemistry parameters in high fat diet obese mice (hypercholesterolemia and hyperlipidemia); format: in vivo; conditions: for change in mean Albumin values: female animals, considered incidental; for ALT/SGPT / AST/SGOT / Albumin / Glucose / Total Cholesterol / Total Protein / Triglycerides / HDL / LDL / VLDL: 28 days, serum, n = 5; for ALT/SGPT / AST/SGOT / Albumin / Glucose / Total Cholesterol / Total Protein / Triglycerides: Mean ± SD; for HDL / LDL / VLDL: mean
Excerpt: d. Diet: The animals were fed ad libitum with AMRUT Laboratory Animal feed manufactured by Pranav Agro Industries Limited, Sangli, Maharastra throughout the acclimatization Open Source Diet D12450B diet (with 10 kcal % Fat) and Open Source Diet D12492 High fat diet (with 60 kcal % Fat) manufactured by Research Diet Inc, USA procured from Indus Marketing, Hyderabad, Andhra Pradesh, INDIA was used for induction of obesity and the main study.
Grouping of animals was done on the last day of acclimatization by body weight randomization and stratification method.
The animals were divided into 5 groups viz., Group 1, 2, 3, 4 and 5 consisting of 10 animals (5 male and 5 female) each.
a. Dose Volume: Dose volume/animal=10 ml/kg body weight for all animals throughout the study period
b. Obesity induction: The G1 Control group animals were fed with normal control diet feed D12450B containing 10 kcal % fat and the G2 to G5 group animals were fed with high fat diet feed D12492 containing 60 kcal % fat during the induction of obesity and during main study. Obesity induction was done considering the scientific rationale that obesity is a serious risk factor for hypercholesterolemia.
c. Main Study: The main study was started after the induction of obesity. The 3 doses of Calebin A was administered to animals from Day 29 daily consecutively for a period of 28 days. The feeding of diets continued in the main study in a similar way as performed in induction of obesity. The G1 Control and G2 High fat diet control group animals were administered with 0.5% CMC (Carboxy Methyl Cellulose) while other group animals received test item from Day 29 to Day 56 of the study period. The dose volume of administration was maintained according to the weekly body weight of individual animals.
d. Duration of the study: The total duration of the study was 61 days (5 days Acclimatization period+28 days Induction of obesity+[…] Main study).
The raw data obtained from the present study were subjected to computer statistical processing. The computer printout of the data (in the form of appendix) was verified with the original raw data. After verification, the data was subjected to One-way ANOVA (Analysis of Variance) with Dunnett's post test for the data on body weights, hematology and clinical chemistry parameters, organ weights using GraphPad Prism version 5.01, GraphPad Software. All analyses and comparisons was evaluated at the 95% level of confidence (P<0.05), indicated by the designated by the superscripts of a where G1 is compared to G3, G4, G5, and G6 and b where G2 is compared to G3, G4, G5, and G6 throughout the report as stated below: *: Statistically significant (P<0.05) wherever applicable.
At the completion of the study period, blood samples were collected from all the animals in tubes containing potassium ethylene […] tetra acetic acid (K2-EDTA) anticoagulant for hematology and without anticoagulant for clinical chemistry. The blood samples collected in tubes without anticoagulant were centrifuged at 3000 rpm for 10 minutes to obtain serum. Blood samples were collected humanely from retro-orbital plexus puncture method under mild ether anesthesia with the help of a fine capillary tube. The following clinical chemistry parameters were analyzed.
The following clinical chemistry parameters (TABLE III) were analyzed using the “Erba Mannheim Chem Touch analyzer” (Transasia Bio-Medicals Ltd, India) from serum samples.

[2] = conclusion, doses of 5, 10 and 20 mg/kg body weight, hypercholesterolemic mammals
[3] = female mice, G3 5 mg/kg + High fat diet (60 kcal % Fat)
[4] = female mice, G4 10 mg/kg + High fat diet (60 kcal % Fat)
[5] = female mice, G5 20 mg/kg + High fat diet (60 kcal % Fat)
[6] = male and female animals, G3, G4, G5 (5, 10, 20 mg/kg + High fat diet) compared to G2 High fat diet Control
[7] = male animals, G3, G4, G5 (5, 10, 20 mg/kg + High fat diet) compared to G2 High fat diet Control
[8] = male mice, G3 5 mg/kg + High fat diet (60 kcal % Fat)
[9] = male mice, G4 10 mg/kg + High fat diet (60 kcal % Fat)
[10] = male mice, G5 20 mg/kg + High fat diet (60 kcal % Fat)

COc1cc(/C=C/C(=O)COC(=O)/C=C/c2ccc(O)c(OC)c2)ccc1O [Calebin A] was tested, and the Aggression (mice; mouse, in vivo, po) was “Aggression = Nil”, the Atexia (mice; mouse, in vivo, po) was “Atexia = Nil” and the Blanching (mice; mouse, in vivo, po) was “Blanching = Nil”. The “Clonic Convulsions” value (mice; mouse, in vivo, po) was “Clonic Convulsions = Nil”, the Corneal (mice; mouse, in vivo, po) was “Corneal = No effect” and the Cyanosis (mice; mouse, in vivo, po) was “Cyanosis = Nil”. The Diarrhea (mice; mouse, in vivo, po) was “Diarrhea = Nil”, the Excitation (mice; mouse, in vivo, po) was “Excitation = Nil” and the Fear (mice; mouse, in vivo, po) was “Fear = Nil”. For the same molecule, the “Fecal Output” value (mice; mouse, in vivo, po) was “Fecal Output = Normal”, the “General Locomotor Activity” value (mice; mouse, in vivo, po) was “Normal” and the “General Movement” value (mice; mouse, in vivo, po) was “General Movement = Normal”. The Hyperaemia (mice; mouse, in vivo, po) was “Hyperaemia = Nil”, the “Muscular Weakness” value (mice; mouse, in vivo, po) was “Muscular Weakness = Nil” and the Passive (mice; mouse, in vivo, po) was “Passive = Nil”. The “Pilo Erection” value (mice; mouse, in vivo, po) was “Pilo Erection = Nil”, the Pinnal (mice; mouse, in vivo, po) was “Pinnal = No effect” and the “Respiration Depth” value (mice; mouse, in vivo, po) was “Respiration Depth = Normal”. The “Respiration Rate” value (mice; mouse, in vivo, po) was “Respiration Rate = Normal”, the Salivation (mice; mouse, in vivo, po) was “Salivation = Nil” and the “Tonic Convulsion” value (mice; mouse, in vivo, po) was “Tonic Convulsion = Nil”. The Tremors (mice; mouse, in vivo, po) was “Tremors = Nil”, the “Urine Output” value (mice; mouse, in vivo, po) was “Urine Output = Normal” and the mortality (mice; up to 2000 mg/kg p.o., mice, up to two weeks of observation) was “No mortality”. For the same molecule, the “HDL concentrations in the blood” value [1, 2] was “increased”, the “LDL concentrations in the blood” value [1, 2] was “decreased” and the “VLDL concentrations in the blood” value [1, 2] was “decreased”. The serum triglyceride concentrations ([1]; conclusion, doses of 5, 10 and 20 mg/kg body weight, hyperlipidemic mammals) was “lowered”, the “change in mean Albumin values” ([1]; G5 20 mg/kg + High fat diet compared to G1 Control (10 kcal % Fat)) was “statistically significant decrease” and the “change in mean Albumin values” ([1]; G5 20 mg/kg + High fat diet compared to G2 High fat diet Control) was “statistically significant decrease”. For the same molecule, the ALT/SGPT [1, 3] was 41.73 ± 5.39 IU/L, the AST/SGOT [1, 3] was 80.51 ± 32.35 IU/L and the Albumin [1, 3] was 2.82 ± 0.19 g/dL. The Glucose [1, 3] was 134.52 ± 26.85 mg/dL, the “Total Cholesterol” value [1, 3] was 75.71 ± 13.90 mg/dL and the “Total Protein” value [1, 3] was 5.37 ± 0.80 g/dL. It also gave a Triglycerides [1, 3] of 60.15 ± 10.25 mg/dL, an HDL [1, 3] of 81.59 mg/dL and an LDL [1, 3] of 78.68 mg/dL. It also gave a VLDL [1, 3] of 15.14 mg/dL, an ALT/SGPT [1, 4] of 63.29 ± 32.86 IU/L and an AST/SGOT [1, 4] of 79.89 ± 50.05 IU/L. For the same molecule, the Albumin [1, 4] was 2.80 ± 0.38 g/dL, the Glucose [1, 4] was 112.34 ± 11.35 mg/dL and the “Total Cholesterol” value [1, 4] was 47.54 ± 14.21 mg/dL. For the same molecule, the “Total Protein” value [1, 4] was 4.91 ± 0.20 g/dL, the Triglycerides [1, 4] was 59.70 ± 4.33 mg/dL and the HDL [1, 4] was 66.85 mg/dL. For the same molecule, the LDL [1, 4] was 61.20* ^b ± mg/dl, the VLDL [1, 4] was 9.51 mg/dL and the ALT/SGPT [1, 5] was 55.51 ± 16.94 IU/L. The AST/SGOT [1, 5] was 79.91 ± 36.82 IU/L, the Glucose [1, 5] was 93.58 ± 11.49 mg/dL and the “Total Cholesterol” value [1, 5] was 69.14 ± 21.88 mg/dL. The “Total Protein” value [1, 5] was 4.88 ± 0.27 g/dL, the Triglycerides [1, 5] was 52.88 ± 4.56 mg/dL and the HDL [1, 5] was 66.67 mg/dL. For the same molecule, the LDL [1, 5] was 52.31** ^b ± mg/dl, the VLDL [1, 5] was 13.83 mg/dL and the “change in mean Low Density Lipoproteins values” [1, 6] was “decrease”. The “change in mean Very Low Density Lipoproteins values” [1, 6] was “decrease”, the “change in mean high Density Lipoproteins values” ([1]; male and female animals, G4, G5 (10, 20 mg/kg + High fat diet) compared to G2 High fat diet Control) was “increase” and the “change in mean Total Cholesterol values” [1, 7] was “decrease”. The “change in mean Triglycerides values” [1, 7] was “decrease”, the ALT/SGPT [1, 8] was 64.35 ± 24.58 IU/L and the AST/SGOT [1, 8] was 86.99 ± 35.22 IU/L. For the same molecule, the Albumin [1, 8] was 2.73 ± 0.23 g/dL, the Glucose [1, 8] was 159.30 ± 17.02 mg/dL and the “Total Cholesterol” value [1, 8] was 63.46 ± 16.64 mg/dL. The “Total Protein” value [1, 8] was 4.74 ± 0.23 g/dL, the Triglycerides [1, 8] was 76.53 ± 17.11 mg/dL and the HDL [1, 8] was 20.46 mg/dL. It also gave an LDL [1, 8] of 85.55 mg/dL, a VLDL [1, 8] of 12.69 mg/dL and an ALT/SGPT [1, 9] of 54.81 ± 13.58 IU/L. The AST/SGOT [1, 9] was 89.48 ± 35.58 IU/L, the Albumin [1, 9] was 2.43 ± 0.42 g/dL and the Glucose [1, 9] was 130.49 ± 21.28 mg/dL. The “Total Protein” value [1, 9] was 5.08 ± 0.49 g/dL, the HDL [1, 9] was 41.80 mg/dL and the LDL [1, 9] was 97.45 mg/dL. For the same molecule, the VLDL [1, 9] was 12.37*^b ± mg/dl, the ALT/SGPT [1, 10] was 48.44 ± 9.73 IU/L and the AST/SGOT [1, 10] was 90.17 ± 25.87 IU/L. For the same molecule, the Albumin [1, 10] was 2.66 ± 0.17 g/dL, the Glucose [1, 10] was 105.89 ± 37.17 mg/dL and the “Total Cholesterol” value [1, 10] was 70.48 ± 14.59 mg/dL. The “Total Protein” value [1, 10] was 4.42 ± 0.48 g/dL, the HDL [1, 10] was 47.26 mg/dL and the LDL [1, 10] was 94.46 mg/dL. For the same molecule, the VLDL [1, 10] was 14.10 mg/dL.
